Results taken from ChEMBL document CHEMBL5365396, “Design, synthesis and anti-tumor evaluation of plinabulin derivatives as potential agents targeting β-tubulin” (Bioorg Med Chem Lett, 2023).
Activity calls are given as the source filed them. No cut-off for these calls is given here.

Tests used:
[1] = test system: BXPC-3; assay: Antiproliferative activity against human BXPC-3 cells assessed as cell growth inhibition by MTT assay; type: functional, cell-based
[2] = test system: NCI-H460; assay: Antiproliferative activity against human NCI-H460 cells assessed as cell growth inhibition by MTT assay; type: functional, cell-based
[3] = test system: HCT-116; assay: Antiproliferative activity against human HCT-116 cells assessed as cell growth inhibition by MTT assay; type: functional, cell-based
[4] = molecular target: T1, Tubulin beta (Homo sapiens) (UniProt P68371+Q9H4B7+Q13509+P04350+Q3ZCM7+P07437+Q13885+Q9BVA1+Q9BUF5+A6NNZ2); assay: Induction of beta-tubulin depolymerization in human HCT-116 cells assessed as microtubule disruption at 10 nM incubated for 24 hrs by DAPI staining based immunofluorescence assay relative to control; type: cell-based
[5] = molecular target: T1, Tubulin beta (Homo sapiens); assay: Induction of beta-tubulin depolymerization in human HCT-116 cells assessed as disruption of microtubule network by measuring abnormality in formation of spindle bodies at 10 nM measured after 24 hrs by DAPI staining based immunofluorescence assay; type: cell-based
[6] = test system: HCT-116; assay: Induction of apoptosis in human HCT-116 cells assessed as late apoptotic cells at 5 nM by Annexin-V-FITC and PI staining based flow cytometry (reference value: 1.75 %); type: functional
[7] = Induction of apoptosis in human HCT-116 cells assessed as early apoptotic cells at 5 nM by Annexin-V-FITC and PI staining based flow cytometry (reference value: 3.20 %); type: functional
[8] = test system: HCT-116; assay: Induction of apoptosis in human HCT-116 cells assessed as late apoptotic cells at 10 nM by Annexin-V-FITC and PI based flow cytometry (reference value: 1.75 %); type: functional
[9] = test system: HCT-116; assay: Induction of cell cycle arrest in human HCT-116 cells assessed as accumulation of cells at S phase at 5 nM by propidium iodide staining based flow cytometry analysis (reference value: 39.4 %); type: functional
[10] = test system: HCT-116; assay: Induction of cell cycle arrest in human HCT-116 cells assessed as accumulation of cells at S phase at 10 nM by propidium iodide staining based flow cytometry analysis (reference value: 39.4 %); type: functional
[11] = test system: HCT-116; assay: Induction of cell cycle arrest in human HCT-116 cells assessed as accumulation of cells at G1 phase at 5 nM by propidium iodide staining based flow cytometry analysis (reference value: 37.85 %); type: functional
[12] = test system: HCT-116; assay: Induction of cell cycle arrest in human HCT-116 cells assessed as accumulation of cells at G1 phase at 20 nM by propidium iodide staining based flow cytometry analysis (reference value: 37.85 %); type: functional
[13] = test system: HCT-116; assay: Induction of apoptosis in human HCT-116 cells assessed as early apoptotic cells at 10 nM by Annexin-V-FITC and PI staining based flow cytometry (reference value: 3.20 %); type: functional
[14] = test system: HCT-116; assay: Induction of cell cycle arrest in human HCT-116 cells assessed as accumulation of cells at G1 phase at 10 nM by propidium iodide staining based flow cytometry analysis (reference value: 37.85 %); type: functional
[15] = test system: HCT-116; assay: Induction of cell cycle arrest in human HCT-116 cells assessed as accumulation of cells at S phase at 20 nM by propidium iodide staining based flow cytometry analysis (reference value: 39.4 %); type: functional
[16] = test system: HCT-116; assay: Induction of cell cycle arrest in human HCT-116 cells assessed as increase in accumulation at G2/M phase at 10 nM by propidium iodide staining based flow cytometry relative to control; type: functional
[17] = test system: HCT-116; assay: Induction of cell cycle arrest in human HCT-116 cells assessed as increase in accumulation at G2/M phase at 20 nM by propidium iodide staining based flow cytometry relative to control; type: functional
[18] = test system: HCT-116; assay: Induction of cell cycle arrest in human HCT-116 cells assessed as increase in accumulation at G2/M phase at 5 nM by propidium iodide staining based flow cytometry relative to control; type: functional
[19] = test system: HCT-116; assay: Induction of cell cycle arrest in human HCT-116 cells assessed as increase in accumulation at G2/M phase by propidium iodide staining based flow cytometry; type: functional; details: dose 5-20 nM
[20] = test system: HCT-116; assay: Induction of apoptosis in human HCT-116 cells assessed as increase in late apoptosis cells at 20 nM by Annexin-V-FITC and PI staining based flow cytometry analysis relative to control; type: functional
[21] = test system: HCT-116; assay: Induction of apoptosis in human HCT-116 cells assessed as increase in early apoptosis cells at 20 nM by Annexin-V-FITC and PI staining based flow cytometry analysis relative to control; type: functional

| Compound | IC50 [1] | IC50 [2] | IC50 [3] | other results |
| --- | --- | --- | --- | --- |
| CC(C)(C)c1[nH]cnc1/C=c1\[nH]c(=O)/c(=C/c2ccc3[nH]ccc3c2)[nH]c1=O | 6.7 nM | 223 nM | 5.9 nM | – |
| CC(C)(C)c1[nH]cnc1/C=c1\[nH]c(=O)/c(=C/c2cccc(NC(=O)C3CC3)c2)[nH]c1=O | 1570 nM | 2340 nM | 730 nM | – |
| CC(C)(C)c1[nH]cnc1/C=c1\[nH]c(=O)/c(=C/c2cccc3cc[nH]c23)[nH]c1=O | 9.5 nM | 286 nM | 390 nM | – |
| Cc1ccc(F)cc1C(=O)Nc1cccc(/C=c2\[nH]c(=O)/c(=C/c3nc[nH]c3C(C)(C)C)[nH]c2=O)c1 | 1590 nM | 1310 nM | 362 nM | – |
| CC(=O)Nc1cccc(/C=c2\[nH]c(=O)/c(=C/c3nc[nH]c3C(C)(C)C)[nH]c2=O)c1 | 540 nM | 667 nM | 238 nM | – |
| CC(C)(C)c1[nH]cnc1/C=c1\[nH]c(=O)/c(=C/c2cccc(NC(=O)c3ccccn3)c2)[nH]c1=O | 520 nM | 3850 nM | 226 nM | – |
| CC(C)(C)c1[nH]cnc1/C=c1\[nH]c(=O)/c(=C/c2cccc(N)c2)[nH]c1=O | 80.1 nM | 165 nM | 15.3 nM | – |
| CC(C)(C)c1[nH]cnc1/C=c1\[nH]c(=O)/c(=C/c2ccccc2)[nH]c1=O [PLINABULIN] | 18.4 nM | 30.9 nM | 8.8 nM | Activity [4]: 67%; Activity [5]: Active |
| CC(C)(C)c1[nH]cnc1/C=c1\[nH]c(=O)/c(=C/c2cccc(NC(=O)Cc3ccccc3)c2)[nH]c1=O | 1700 nM | 1100 nM | 474 nM | – |
| CC(C)(C)c1[nH]cnc1/C=c1\[nH]c(=O)/c(=C/c2cccc(NC(=O)c3cc4ccccc4[nH]3)c2)[nH]c1=O | 1760 nM | > 5000 nM | 2660 nM | – |
| CC(C)(C)C(=O)Nc1cccc(/C=c2\[nH]c(=O)/c(=C/c3nc[nH]c3C(C)(C)C)[nH]c2=O)c1 | 1890 nM | 3180 nM | 2880 nM | – |
| CC(C)C(=O)Nc1cccc(/C=c2\[nH]c(=O)/c(=C/c3nc[nH]c3C(C)(C)C)[nH]c2=O)c1 | 1460 nM | 977 nM | 606 nM | – |
| CC(C)[C@H](CN)C(=O)Nc1cccc(/C=c2\[nH]c(=O)/c(=C/c3nc[nH]c3C(C)(C)C)[nH]c2=O)c1 (stereo in doubt) | 31.4 nM | 1430 nM | 31.3 nM | – |
| CC(C)(C)c1[nH]cnc1/C=c1\[nH]c(=O)/c(=C/c2cccc(NC(=O)C3CCCC3)c2)[nH]c1=O | 3130 nM | 743 nM | 643 nM | – |
| CC(C)(C)c1[nH]cnc1/C=c1\[nH]c(=O)/c(=C/c2cccc3[nH]ccc23)[nH]c1=O | 16.7 nM | 20.9 nM | 7.3 nM | Activity [6]: 2%; Activity [7]: 4.9%; Activity [8]: 2.55%; Activity [9]: 41.45%; Activity [10]: 37.05%; Activity [11]: 33.6%; Activity [12]: 5.69%; Activity [13]: 6.15%; Activity [14]: 32.3%; Activity [4]: 77%; Activity [15]: 41.7%; fold change (FC) [16]: 1.4; Activity [5]: Active; fold change (FC) [17]: 2.7; fold change (FC) [18]: 1.1; Activity [19]: Dose-Dependent Effect; fold change (FC) [20]: 3.9; fold change (FC) [21]: 6.4 |
| CC(C)(C)c1[nH]cnc1/C=c1\[nH]c(=O)/c(=C/c2cccc(NC(=O)CN)c2)[nH]c1=O | 272 nM | 843 nM | 214 nM | – |
| CC(C)(C)c1[nH]cnc1/C=c1\[nH]c(=O)/c(=C/c2cccc(NC(=O)c3ccc(F)cc3)c2)[nH]c1=O | 595 nM | 271 nM | 123 nM | – |
| CC(C)(C)c1[nH]cnc1/C=c1\[nH]c(=O)/c(=C/c2cccc(NC(=O)c3cccnc3)c2)[nH]c1=O | 1600 nM | 4850 nM | 1060 nM | – |
| CCC(=O)Nc1cccc(/C=c2\[nH]c(=O)/c(=C/c3nc[nH]c3C(C)(C)C)[nH]c2=O)c1 | 598 nM | 2290 nM | 243 nM | – |
| CC(C)(C)c1[nH]cnc1/C=c1\[nH]c(=O)/c(=C/c2cccc(NC(=O)C3CCCCC3)c2)[nH]c1=O | 1020 nM | 618 nM | 1320 nM | – |
| CC(C)(C)c1[nH]cnc1/C=c1\[nH]c(=O)/c(=C/c2cc3ccccc3[nH]2)[nH]c1=O | 2770 nM | 1390 nM | 3310 nM | – |
| CC(C)(C)c1[nH]cnc1/C=c1\[nH]c(=O)/c(=C/c2ccc3cc[nH]c3c2)[nH]c1=O | 3770 nM | 1840 nM | 2900 nM | – |
| Cc1ccc(C(=O)Nc2cccc(/C=c3\[nH]c(=O)/c(=C/c4nc[nH]c4C(C)(C)C)[nH]c3=O)c2)c(C)c1 | 2590 nM | 1280 nM | 504 nM | – |
| CC(C)(C)c1[nH]cnc1/C=c1\[nH]c(=O)/c(=C/c2c[nH]c3ccccc23)[nH]c1=O | 13.7 nM | 82.8 nM | 6.5 nM | – |
| CC(C)(C)c1[nH]cnc1/C=c1\[nH]c(=O)/c(=C/c2cccc(NC(=O)c3cccc(C(=O)c4ccccc4)c3)c2)[nH]c1=O | 4460 nM | > 5000 nM | > 5000 nM | – |
| COc1ccc(C(=O)Nc2cccc(/C=c3\[nH]c(=O)/c(=C/c4nc[nH]c4C(C)(C)C)[nH]c3=O)c2)cc1 | 1510 nM | 1170 nM | 1040 nM | – |
| CC(C)(C)c1[nH]cnc1/C=c1\[nH]c(=O)/c(=C/c2cccc(NC(=O)C3CCCN3)c2)[nH]c1=O (configuration not stated) | 22.9 nM | 302 nM | 72.1 nM | – |
| CC(C)(C)c1[nH]cnc1/C=c1\[nH]c(=O)/c(=C/c2cccc(NC(=O)c3ccccc3)c2)[nH]c1=O | 398 nM | 936 nM | 47.6 nM | – |
| CC(C)(C)c1[nH]cnc1/C=c1\[nH]c(=O)/c(=C/c2cccc(NC(=O)C3CCC3)c2)[nH]c1=O | 585 nM | 1490 nM | 895 nM | – |
